Test results as given in patent US10987360B2, “Hepatitis B core protein modulators” (Assembly Biosciences, Inc., priority 2016, dated 2021).

Columns and labels:
[1] = tested on: HBV viral load in AD38 cells; experiment: Viral load production in AD38 cells, quantitative PCR of the core sequence in supernatant; type: cell-based; conditions: 6 days incubation; for activity at 10 µM: Hepatitis B virus, 144 h, Table 4, compounds of Group 2, read-out: AD38 Viral Load (%) (VL with cmpd/VL in DMSO control) at 10 μM
Procedure: (§1) Assay Measuring Activity of Compounds on Viral Production in and on Viability of AD38 Cells
(§2) AD38 cells grown in a 175 cm flask with “Growth Medium” (DMEM/F12 (1:1) (cat #SH30023.01, Hyclone, 1×Pen/step (cat #: 30-002-CL, Mediatech, Inc), 10% FBS (cat #: 101, Tissue Culture Biologics), 250 μg/mL G418 (cat #: 30-234-CR, Mediatech, Inc), 1 μg/mL Tetracycline (cat #: T3325, Teknova)) were detached with 0.25% trypsin. Tetracycline-free “treatment medium” (15 mL DMEM/F12 (1:1) (cat #SH30023.01, Hyclone, 1×Pen/step (cat #: 30-002-CL, Mediatech, Inc), with 2% FBS, Tet-system approved (cat #: 631106, Clontech) were then added to mix and spun at 1300 rpm for 5 min. Pelleted cells were then re-suspended/washed with 50 mL of 1×PBS 2 times and 10 mL Treatment Medium one time. AD38 cells were then re-suspended with 10 mL of Treatment Medium and counted. Wells of a collagen coated 96-well NUNC microtiter plate were seeded at 50,000/well in 180 μL of Treatment Medium, and 20 μL of in treatment media with either 10% DMSO (Control) or a 10× solution of compound in 10% DMSO was added. Plates were incubated for 6 days at 37° C.
Viral load production was assayed by quantitative PCR of the core sequence. Briefly, 5 μL of clarified supernatant was added to a PCR reaction mixture that contained forward primers HBV-f 5′-CTGTGCCTTGGGTGGCTTT-3′, Reverse primers HBV-r 5′-[…]-3′ and Fluorescent TaqMan™ Probes HBV-probe 5′-FAM/AGCTCCAAA/ZEN/[…]/3IABkFQ-3′ in Quanta Biosciences PerfeCTa® qPCR Toughmix®, and was subsequently on an Applied Biosystems VIIA7 in a final volume of 20 μL. The PCR mixture was incubated at 45° C. for 5 minutes, then 95° C. for 10 min, followed by 40 cycles of 10 seconds at 95° C. and 20 seconds at 60° C. Viral load was quantitated against known standards by using ViiA™ 7 Software. Viral load in the supernatant from wells with treated cells were compared against viral load in supernatant from DMSO control wells (≥3 per plate).

AD38 cells = experiment: Viability of AD38 cells, Promega CellTiter-Glo; type: cell-based; conditions: 6 days incubation, controls being 100%
Procedure: as §1, §2
At the end of compound treatment period cell viability was assessed using a Promega CellTiter-Glo protocol. All supernatant was removed the previously treated 96-well microtiter plate, and 50 μL Tetracycline-free treatment medium (DMEM/F12 (1:1), 1×Pen/step (cat #: 30-002-CL, Mediatech, Inc), with 2% FBS, Tet-system approved (cat #: 631106, Clontech), and 1% DMSO was added back to each well. Another 50 μL of CellTiter-Glo reagent solution (Promega, G7573) was then added at room temperature and the contents mixed for 2 minutes on an orbital shaker to induce cell lysis. This was followed by incubation at room temperature for 10 minutes to stabilize the luminescent signal. The luminescence was recorded for 0.2 seconds per well on a Tecan multimode platereader (Infinite M1000 pro). The luminescent signal from each well was normalized against that of untreated (DMSO) control wells. All results in Tables 3-6 were reported with percent viability (with controls being 100%).

Compound	activity at 10 µM [1] [%]	AD38 Viability Normalized Result (cmpd/DMSO %) at 10 μM (AD38 cells; Table 4, compounds of Group 2) [%]	AD38 Viral Load (%) (VL with cmpd/VL in DMSO control) at 10 μM ([1]; Table 3, compounds of Group 1)	AD38 Viability Normalized Result (cmpd/DMSO %) at 10 μM (AD38 cells; Table 3, compounds of Group 1) [%]
N#Cc1ccc(-c2ncc(CNC(=O)c3ccc4c(c3)NC(=O)C3CCCCN3S4(=O)=O)s2)c(F)c1 (stereo not drawn) [Compound C25-02]	0.5	95		
O=C(NCc1cnc(-n2cccn2)s1)c1ccc2c(c1)NC(=O)C1CCCCN1S2(=O)=O (stereo not drawn) [Compound C25-04]	5.4	98		
O=C1NC2=C(CCN(C(=O)NCc3cnc(-n4cccn4)s3)C2)S(=O)(=O)c2ccccc21 [Compound C43-01, N-((2-(1H-pyrazol-1-yl)thiazol-5-yl)methyl)-10-oxo-3,4,10,11-tetrahydrobenzo[f]pyrido[4,3-b][1,4]thiazepine-2(1H)-carboxamide 5,5-dioxide]	64.4	97		
CN(C)CCCOc1ccc(-c2ncc(CNC(=O)c3ccc4c(c3)NC(=O)c3ccncc3S4(=O)=O)s2)cc1 [Compound C46-01]	8.5	101		
O=C(NCc1cnc(-n2cccn2)s1)c1ccc2c(c1)NC(=O)c1ccncc1S2(=O)=O [Compound C46-02]	0.9	102		
ten-butyl (2-(4-(5-((5,5-dioxido-11-oxo-10,11-dihydrodibenzo[b,f][1,4]thiazepine-8-carboxamido) methyl) thiazol-2-yl) piperidin-1-yl)-2-oxoethyl) (methyl) carbamate [Compound 1035-A]			57.8	102
